# In patent publication US20110034487A1, “CXCR3 ANTAGONISTS” (AMGEN INC., priority 2009, published 2011):
# Legend:
# [1] = system: lymphocyte migration toward I-TAC; assay: Lymphocyte migration toward I-TAC; assay type: cell-based; details: 100% human plasma, read-out: Migration to ITAC IC50 (nM) 100% Plasma
# [2] = Multiple dosing of AMG 487 in humans; assay type: in vivo, human
# Description: Thus, there remains a need to identify a suitable clinical candidate devoid of the unpredicted accumulation seen with AMG 487. Such compounds are provided herein.
# CXCR3 [3] = molecular target: T1, CXCR3 (Homo sapiens, UniProt P49682); assay: 125I-I-TAC binding assay (CXCR3 binding); details: 50% human plasma; primary, activated human lymphocytes
# T1 construct: endogenous in cells
# T1 sequence (P49682 1-368): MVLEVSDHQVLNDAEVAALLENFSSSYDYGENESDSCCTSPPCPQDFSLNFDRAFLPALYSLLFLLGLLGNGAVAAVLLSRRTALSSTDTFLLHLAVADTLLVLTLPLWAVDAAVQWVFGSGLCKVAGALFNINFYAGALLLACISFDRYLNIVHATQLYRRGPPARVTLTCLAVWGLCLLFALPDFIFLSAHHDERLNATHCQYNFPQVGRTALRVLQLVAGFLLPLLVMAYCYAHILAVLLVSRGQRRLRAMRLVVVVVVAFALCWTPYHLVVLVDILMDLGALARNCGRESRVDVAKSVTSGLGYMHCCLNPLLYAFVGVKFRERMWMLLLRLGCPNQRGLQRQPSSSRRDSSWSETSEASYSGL
# Description: (§1) Unless otherwise noted, all reagents used are available from commercial sources (e.g., Sigma). Test compounds are diluted in DMSO to a concentration that is 40-times the intended final assay concentration; 5 μL are transferred to each well of a 96-well flat-bottomed polypropylene plate (e.g., from Greiner, Inc.). The cells were resuspended in assay buffer (25 mM Hepes, 80 mM NaCl, 1 mM CaCl2, 5 mM MgCl2, 0.2% bovine serum albumin, pH 7.1, stored at 4° C.) at 5 million cells per mL; 100 μL of this cell suspension is then transferred to each well of a 96-well plate containing the diluted test compounds. ^125I-labelled chemokine (purchased from commercial sources, e.g., Amersham, PE Life Sciences) is diluted in assay buffer to a concentration of approximately 60 pM; 100 μL of this chemokine solution is transferred to each well of a 96-well plate containing compounds and cell suspension. The plates are sealed with commercially available foil plate seals (e.g., from E&K Scientific), and stored at 4° C. for 2 to 4 h, shaking gently. […] The plates are counted on a scintillation counter, such as a Packard TopCount. […] Data were analyzed using commercially available software (e.g., Excel from Microsoft, Prism from GraphPad Software Inc.).
# [4] = system: cellular migration into the lung; assay: Cellular migration into the lung following bleomycin challenge; assay type: in vivo; details: following bleomycin challenge (FIG. 1)
# CXCR3 [5] = molecular target: T1, CXCR3; assay: [125I]-IP-10 binding assay (CXCR3 binding)
# Description: as §1
# CXCR3 [6] = molecular target: T1, CXCR3; assay: HWB receptor occupancy (500 ng/ml ITAC); assay type: cell-based
# CYP3A4 = CYP3A4 (Homo sapiens, UniProt P08684); details: human hepatocytes and microsomes
# Sequence of CYP3A4 (P08684 whole entry): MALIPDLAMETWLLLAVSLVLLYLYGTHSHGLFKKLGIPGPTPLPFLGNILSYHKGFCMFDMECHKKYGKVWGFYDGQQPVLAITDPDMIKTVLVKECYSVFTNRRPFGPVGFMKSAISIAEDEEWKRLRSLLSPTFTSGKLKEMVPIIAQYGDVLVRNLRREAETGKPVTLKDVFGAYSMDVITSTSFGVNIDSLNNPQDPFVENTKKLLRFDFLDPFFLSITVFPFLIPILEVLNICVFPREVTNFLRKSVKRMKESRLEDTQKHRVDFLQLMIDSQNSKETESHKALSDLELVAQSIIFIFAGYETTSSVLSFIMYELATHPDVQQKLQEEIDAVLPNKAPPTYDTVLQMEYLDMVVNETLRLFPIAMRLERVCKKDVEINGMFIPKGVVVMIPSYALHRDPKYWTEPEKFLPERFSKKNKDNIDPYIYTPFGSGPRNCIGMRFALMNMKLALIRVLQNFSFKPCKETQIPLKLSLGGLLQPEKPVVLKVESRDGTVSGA
SMILES,IC50 [1],Accumulation of the compound upon multiple dosing [2],IC50 (CXCR3 [3]),Cellular migration into the lung [4],"IC50 (CXCR3 [5]; [125I]-IP-10 Binding IC50 (nM) 50% Plasma, 50% human plasma, primary, activated human lymphocytes)","IC50 (CXCR3 [5]; buffer, read-out: [125I]-IP-10 Binding IC50 (nM) Buffer)",IC50 (CXCR3 [6]),CYP3A4 inhibition (CYP3A4)
"CCOc1ccc(-n2c([C@@H](C)N(Cc3cccnc3)C(=O)Cc3ccc(OC(F)(F)F)cc3)nc3ncccc3c2=O)cc1 [AMG 487, reference compound]",346 ± 123 nM,dose-dependent accumulation,,,,,,
C[C@H](c1nc2ncccc2c(=O)n1-c1ccc(Cl)cc1)N(CC1CCS(=O)(=O)CC1)C(=O)Cc1ccc(C(F)(F)F)c(F)c1 [Compound 1],65 ± 14 nM,,51 ± 20 nM,inhibits cellular migration into the lung,12 ± 5 nM,7 ± 2 nM,9.8 ± 4.4 nM,
CC(c1nc2ncccc2c(=O)n1-c1ccc(O)cc1)N(Cc1cccnc1)C(=O)Cc1ccc(OC(F)(F)F)cc1 (stereo not drawn) [Compound M2],,,,,,,,time-dependent inhibitor of CYP3A4
